Source: US12358907B2, “Substituted pyrrolidine amides III” (GRÜNENTHAL GMBH, priority 2019, dated 2025)

The compounds below were run against glucocorticoid receptor (GAL4 DBD-GR) (Homo sapiens (Human), UniProt P04150) (assay: GR cell-based assays (GRE agonist / GRE antagonist), CHO-Gal4/GR luciferase reporter). Settings: CHO-Gal4/GR reporter cells, agonist mode (EC50) or antagonist mode against beclometasone (IC50), 6 hour incubation.
In short: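 CHO cells stably carrying GAL4 DBD-GR ligand-binding-domain fusion and a GAL4-UAS firefly luciferase reporter were treated in Opti-MEM with 8 half-log concentrations from 10 μM to 0.003 μM (0.5% DMSO, quadruplicates). Antagonist mode measured repression of beclomethasone-induced signal. Luminescence after lysis gave EC50 or IC50.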

glucocorticoid receptor (GAL4 DBD-GR), sequence (P04150 524-758): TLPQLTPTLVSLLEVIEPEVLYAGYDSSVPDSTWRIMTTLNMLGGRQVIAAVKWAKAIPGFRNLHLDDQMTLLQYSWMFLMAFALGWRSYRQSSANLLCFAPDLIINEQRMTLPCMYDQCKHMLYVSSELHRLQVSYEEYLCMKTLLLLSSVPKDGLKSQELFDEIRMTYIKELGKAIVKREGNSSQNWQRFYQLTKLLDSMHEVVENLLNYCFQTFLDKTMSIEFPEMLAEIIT

Structure (SMILES) | IC50
O=C(N[C@H]1C(CCc2ccccc2)C(=O)N(c2ccc3c(cnn3-c3ccc(F)cc3)c2)[C@@H]1c1ccccc1)C1CC1 (single isomer, unassigned) [Example 130] | 100 to 1000 nM
CC1(C)C(=O)N(c2ccc3c(cnn3-c3ccc(F)cc3)c2)[C@H](c2ccccc2)[C@H]1NS(=O)(=O)C1CC1 [Example 35a, N-((2R,3S)-1-(1-(4-fluorophenyl)-1H-indazol-5-yl)-4,4-dimethyl-5-oxo-2-phenylpyrrolidin-3-yl)cyclopropanesulfonamide] | < 100 nM
Cn1ccc(C(=O)N[C@@H]2[C@@H](c3ccccc3)N(c3ccc4c(cnn4-c4ccc(F)cc4)c3)C(=O)C2(C)C)n1 [Example 37, N-((2R,3S)-1-(1-(4-fluorophenyl)-1H-indazol-5-yl)-4,4-dimethyl-5-oxo-2-phenylpyrrolidin-3-yl)-1-methyl-1H-pyrazole-3-carboxamide] | < 100 nM
Cc1ncsc1C(=O)N[C@@H]1[C@@H](c2ccccc2)N(c2ccc3c(cnn3-c3ccc(F)cc3)c2)C(=O)C1(C)C [Example 38b, N-((2R,3S)-1-(1-(4-fluorophenyl)-1H-indazol-5-yl)-4,4-dimethyl-5-oxo-2-phenylpyrrolidin-3-yl)-4-methylthiazole-5-carboxamide] | < 100 nM
Cc1scnc1C(=O)N[C@@H]1[C@@H](c2ccccc2)N(c2ccc3c(cnn3-c3ccc(F)cc3)c2)C(=O)C1(C)C [Example 39a, N-((2R,3S)-1-(1-(4-fluorophenyl)-1H-indazol-5-yl)-4,4-dimethyl-5-oxo-2-phenylpyrrolidin-3-yl)-5-methylthiazole-4-carboxamide] | < 100 nM
Cc1nocc1C(=O)N[C@@H]1[C@@H](c2ccccc2)N(c2ccc3c(cnn3-c3ccc(F)cc3)c2)C(=O)C1(C)C [Example 40a, N-((2R,3S)-1-(1-(4-fluorophenyl)-1H-indazol-5-yl)-4,4-dimethyl-5-oxo-2-phenylpyrrolidin-3-yl)-3-methylisoxazole-4-carboxamide] | < 100 nM
CC1(C)C(=O)N(c2ccc3c(cnn3-c3ccc(F)cc3)c2)[C@H](c2ccccc2)[C@H]1NC(=O)c1cccnc1 [Example 42a, N-((2R,3S)-1-(1-(4-fluorophenyl)-1H-indazol-5-yl)-4,4-dimethyl-5-oxo-2-phenylpyrrolidin-3-yl)nicotinamide] | < 100 nM
CC1(C)C(=O)N(c2ccc3c(cnn3-c3ccc(F)cc3)c2)[C@H](c2ccccc2)[C@H]1NC(=O)c1ncccn1 [Example 43a, N-((2R,3S)-1-(1-(4-fluorophenyl)-1H-indazol-5-yl)-4,4-dimethyl-5-oxo-2-phenylpyrrolidin-3-yl)pyrimidine-2-carboxamide] | < 100 nM
Cc1ncc(C(=O)N[C@@H]2[C@@H](c3ccccc3)N(c3ccc4c(cnn4-c4ccc(F)cc4)c3)C(=O)C2(C)C)o1 [Example 44a, N-((2R,3S)-1-(1-(4-fluorophenyl)-1H-indazol-5-yl)-4,4-dimethyl-5-oxo-2-phenylpyrrolidin-3-yl)-2-methyloxazole-5-carboxamide] | < 100 nM
Cc1ncoc1C(=O)N[C@@H]1[C@@H](c2ccccc2)N(c2ccc3c(cnn3-c3ccc(F)cc3)c2)C(=O)C1(C)C [Example 45a, N-((2R,3S)-1-(1-(4-fluorophenyl)-1H-indazol-5-yl)-4,4-dimethyl-5-oxo-2-phenylpyrrolidin-3-yl)-4-methyloxazole-5-carboxamide] | < 100 nM
O=C(N[C@H]1[C@H](F)C(=O)N(c2ccc3c(cnn3-c3ccc(F)cc3)c2)[C@@H]1c1ccccc1)C1CC1 [Example 95, N-((2R,3R,4S)-4-fluoro-1-(1-(4-fluorophenyl)-1H-indazol-5-yl)-5-oxo-2-phenylpyrrolidin-3-yl)cyclopropanecarboxamide] | < 100 nM
O=C(N[C@@H]1[C@@H](c2ccccc2)N(c2ccc3c(cnn3-c3ccc(F)cc3)c2)C(=O)C1(F)F)C1CC1 [Example 96, N-((2R,3R)-4,4-difluoro-1-(1-(4-fluorophenyl)-1H-indazol-5-yl)-5-oxo-2-phenylpyrrolidin-3-yl)cyclopropanecarboxamide] | < 100 nM

Same assay, conditions: read-out: IC50 or EC50

Structure (SMILES) | IC50
CC[C@@H]1[C@@H](NC(=O)C2CC2)[C@@](F)(Cc2ccccc2)C(=O)N1c1ccc2c(cnn2-c2ccc(F)cc2)c1 (racemic) [Example 137, N-(rac-(2R,3R,4S)-4-benzyl-2-ethyl-4-fluoro-1-(1-(4-fluorophenyl)-1H-indazol-5-yl)-5-oxopyrrolidin-3-yl)cyclopropanecarboxamide] | < 100 nM
C[C@@]1(CC(F)F)C(=O)N(c2ccc3c(cnn3-c3ccc(F)cc3)c2)[C@H](c2ccccc2)[C@H]1NC(=O)C1CC1 (racemic) [Example 148, N-(rac-(2R,3S,4S)-4-(2,2-difluoroethyl)-1-(1-(4-fluorophenyl)-1H-indazol-5-yl)-4-methyl-5-oxo-2-phenylpyrrolidin-3-yl)cyclopropanecarboxamide] | < 100 nM
C[C@@]1(CC2CC2)C(=O)N(c2ccc3c(cnn3-c3ccc(F)cc3)c2)[C@H](c2ccccc2)[C@H]1NC(=O)C1CC1 (racemic) [Example 149, N-(rac-(2R,3S,4S)-4-(cyclopropylmethyl)-1-(1-(4-fluorophenyl)-1H-indazol-5-yl)-4-methyl-5-oxo-2-phenylpyrrolidin-3-yl)cyclopropanecarboxamide] | < 100 nM
O=C(N[C@H]1C(CCc2ccccc2)C(=O)N(c2ccc3c(cnn3-c3ccc(F)cc3)c2)[C@@H]1c1ccccc1)C1CC1 (single isomer, unassigned) [Example 127] | 100 to 1000 nM
CC1(C)C(=O)N(c2ccc3c(cnn3-c3ccc(F)cc3)c2)[C@H](c2ccccc2)[C@H]1NS(C)(=O)=O [Example 34a, N-((2R,3S)-1-(1-(4-fluorophenyl)-1H-indazol-5-yl)-4,4-dimethyl-5-oxo-2-phenylpyrrolidin-3-yl)methanesulfonamide] | < 100 nM
CC1(C)C(=O)N(c2ccc3c(cnn3-c3ccc(F)cc3)c2)[C@@H](c2ccccc2)[C@@H]1NS(C)(=O)=O [Example 34b, N-((2S,3R)-1-(1-(4-fluorophenyl)-1H-indazol-5-yl)-4,4-dimethyl-5-oxo-2-phenylpyrrolidin-3-yl)methanesulfonamide] | 100 to 1000 nM
CC1(C)C(=O)N(c2ccc3c(cnn3-c3ccc(F)cc3)c2)[C@H](c2ccccc2)[C@H]1NC(=O)c1cnco1 [Example 36a, N-((2R,3S)-1-(1-(4-fluorophenyl)-1H-indazol-5-yl)-4,4-dimethyl-5-oxo-2-phenylpyrrolidin-3-yl)oxazole-5-carboxamide] | 100 to 1000 nM
CC1(C)C(=O)N(c2ccc3c(cnn3-c3ccc(F)cc3)c2)[C@@H](c2ccccc2)[C@@H]1NC(=O)c1cnco1 [Example 36b, N-((2S,3R)-1-(1-(4-fluorophenyl)-1H-indazol-5-yl)-4,4-dimethyl-5-oxo-2-phenylpyrrolidin-3-yl)oxazole-5-carboxamide] | 100 to 1000 nM
Cc1ncsc1C(=O)N[C@H]1[C@H](c2ccccc2)N(c2ccc3c(cnn3-c3ccc(F)cc3)c2)C(=O)C1(C)C [Example 38a, N-((2S,3R)-1-(1-(4-fluorophenyl)-1H-indazol-5-yl)-4,4-dimethyl-5-oxo-2-phenylpyrrolidin-3-yl)-4-methylthiazole-5-carboxamide] | 100 to 1000 nM
Cc1nocc1C(=O)N[C@H]1[C@H](c2ccccc2)N(c2ccc3c(cnn3-c3ccc(F)cc3)c2)C(=O)C1(C)C [Example 40b, N-((2S,3R)-1-(1-(4-fluorophenyl)-1H-indazol-5-yl)-4,4-dimethyl-5-oxo-2-phenylpyrrolidin-3-yl)-3-methylisoxazole-4-carboxamide] | 100 to 1000 nM
Cn1cc(C(=O)N[C@H]2[C@H](c3ccccc3)N(c3ccc4c(cnn4-c4ccc(F)cc4)c3)C(=O)C2(C)C)cn1 [Example 41b, N-((2S,3R)-1-(1-(4-fluorophenyl)-1H-indazol-5-yl)-4,4-dimethyl-5-oxo-2-phenylpyrrolidin-3-yl)-1-methyl-1H-pyrazole-4-carboxamide] | 1000 to 15000 nM
CC1(C)C(=O)N(c2ccc3c(cnn3-c3ccc(F)cc3)c2)[C@@H](c2ccccc2)[C@@H]1NC(=O)c1cccnc1 [Example 42b, N-((2S,3R)-1-(1-(4-fluorophenyl)-1H-indazol-5-yl)-4,4-dimethyl-5-oxo-2-phenylpyrrolidin-3-yl)nicotinamide] | 100 to 1000 nM
CC1(C)C(=O)N(c2ccc3c(cnn3-c3ccc(F)cc3)c2)[C@@H](c2ccccc2)[C@@H]1NC(=O)c1ncccn1 [Example 43b, N-((2S,3R)-1-(1-(4-fluorophenyl)-1H-indazol-5-yl)-4,4-dimethyl-5-oxo-2-phenylpyrrolidin-3-yl)pyrimidine-2-carboxamide] | 1000 to 15000 nM
Cc1ncc(C(=O)N[C@H]2[C@H](c3ccccc3)N(c3ccc4c(cnn4-c4ccc(F)cc4)c3)C(=O)C2(C)C)o1 [Example 44b, N-((2S,3R)-1-(1-(4-fluorophenyl)-1H-indazol-5-yl)-4,4-dimethyl-5-oxo-2-phenylpyrrolidin-3-yl)-2-methyloxazole-5-carboxamide] | 100 to 1000 nM
Cc1ncoc1C(=O)N[C@H]1[C@H](c2ccccc2)N(c2ccc3c(cnn3-c3ccc(F)cc3)c2)C(=O)C1(C)C [Example 45b, N-((2S,3R)-1-(1-(4-fluorophenyl)-1H-indazol-5-yl)-4,4-dimethyl-5-oxo-2-phenylpyrrolidin-3-yl)-4-methyloxazole-5-carboxamide] | 100 to 1000 nM
C[C@@H]1C(=O)N(c2ccc3c(cnn3-c3ccc(F)cc3)c2)[C@H](c2ccc(Cl)s2)[C@H]1NS(C)(=O)=O [Example 114, N-[(2S,3S,4S)-2-(5-Chloro-thiophen-2-yl)-1-[1-(4-fluorophenyl)-1H-indazol-5-yl]-4-methyl-5-oxo-pyrrolidin-3-yl]-methanesulfonic acid amide] | 100 to 1000 nM
O=C(N[C@H]1[C@H](CC(F)F)C(=O)N(c2ccc3c(cnn3-c3ccc(F)cc3)c2)[C@@H]1c1ccccc1)C1CC1 [Example 131, N-((2R,3S,4S)-4-(2,2-difluoroethyl)-1-(1-(4-fluorophenyl)-1H-indazol-5-yl)-5-oxo-2-phenylpyrrolidin-3-yl)cyclopropanecarboxamide] | 100 to 1000 nM
